Measurements taken from article PMC12040169 (PLOS Biology, 2025).
Several values for one entry are separate records, joined by “and”; a condition that tells them apart may be missing. Equal values may be shown once.

Assays:
HeLa = settings: bulk resorufin, single well, 28.5 h, 10 µM, Bulk resorufin fluorescence
in vitro = settings: human, hela cells, % viability

Row | SMILES | % viability (HeLa) | viability at 28.5 h, 10 µM (in vitro) [%]
1 | CC(=O)NCc1cccc(-c2cc(C(=O)Nc3ccc4c(c3)OCCO4)cnc2N2CCOCC2)c1 [CBK159355C] | 102% | 90.1
2 | COc1ccccc1N1C(=O)CC(=O)N=C1S [CBK288517] | 89.3% | 89.5
3 | CCOc1ccc(CN2CC3CCCN3C[C@H]2C)cc1 (some centres unmarked) [CBK285422] | 100% | 87.8
4 | CC[C@@H](Cn1nc(-c2ccc(F)c(F)c2)ccc1=O)NC(=O)C1CC1 [CBK282313] | 89.3% | 90.6
5 | C[C@@H]1CN2CCCC2CN1CC1=Cc2ccccc2OC1 (some centres unmarked) [CBK284552] | 103% | 88.6
6 | CC(C)(C)c1cc(C(=O)NCCN2CCCC2)n(Cc2ccc(Cl)cc2Cl)n1 [CBK107290] | 110% | 115
7 | C/C(=N\O)c1cc2cc(Cl)cc(Cl)c2oc1=O [CBK288516] | 90.6% | 84.5
8 | CC[C@H](Cn1ncc2ccccc2c1=O)NC(=O)C1CCCC1 [CBK284302] | 102% | 94.2
9 | COc1cc(F)ccc1-c1nc(NS(C)(=O)=O)cc2ccccc12 [CBK085751] | 105% | 97.2
10 | C[C@@H]1CN2CCCC2CN1Cc1cccs1 (some centres unmarked) [CBK284550] | 98.3% | 85.6
11 | C[C@@H]1CN2CCCC2CN1Cc1cc(F)ccc1F (some centres unmarked) [CBK285444] | 94.9% | 104
12 | CCOC(=O)c1[nH]c(C)c(CN2CC3CCCN3C[C@@H]2C)c1C (some centres unmarked) [CBK285043] | 105% | 110
13 | Cc1sc(NC(=O)C(F)(F)F)c(C(N)=O)c1C [CBK027775] | 94.1% | 99.4
14 | COc1ccc(-n2ccc(=O)c(Cc3c(Cl)cccc3Cl)c2C)cc1 [CBK019186] | 106% | 89.2
15 | NCCc1c(C23CC4CC(CC(C4)C2)C3)[nH][nH]c1=O [CBK288081] | 106% | 86.5
16 | CCn1ncc(CN2C[C@@H]3CCCN3C[C@@H]2CCSC)c1C [CBK285446] | 110% | 109
17 | Clc1ccc(COc2ccnc(N3CCCN(CCN4CCOCC4)CC3)n2)cc1Cl [CBK083957] | 98.9% | 97.8
18 | Cc1nc2ccccc2n1C(=O)c1sc2ccccc2c1Cl [CBK020557] | 115% | 106
19 | C[C@@H]1CN2C[C@H](O)CC2CN1Cc1ccccc1C(F)(F)F (some centres unmarked) [CBK284556] | 100% | 80.7
20 | Nc1nc(Nc2ccccc2)nc(C(F)(F)F)n1 [CBK004712] | 72% | 89.8
21 | CC(C)[C@H](Cn1nc(C2CC2)ccc1=O)NC(=O)C1CCC1 [CBK282367] | 91.4% | 85.1

Row | SMILES | % viability (HeLa) | viability at 28.5 h, 10 µM (in vitro) [%]
22 | Oc1ccc(-c2cncc(-c3ccc(CN4CCOCC4)cc3)n2)cc1 [CBK123787] | 108% | 104
23 | CN1CCN(S(=O)(=O)c2ccc(C(=O)O)cc2)CC1 [CBK062446] | 109% and 101% | 90.4
24 | CC[C@@H](Cn1ncc2ccccc2c1=O)NC(=O)C1CCC1 [CBK282384] | 82% | 93.4
25 | CCCNC(=O)[C@@H]1Cc2c([nH]c3ccccc23)[C@]2(CCN(CCOc3ccccc3)C2)N1 [CBK063172T] | 86% | 101
26 | COCCn1c(S)nc(=O)c2cc(C)cnc21 [CBK288520] | 92.2% | 88
27 | O=[N+]([O-])c1c(-c2cn[nH]c2)n[nH]c1-c1cn[nH]c1 [CBK008388] | 93.4% | 86.2
28 | O=C(CN1C(=O)[C@H]2CCCN2C(=O)c2ccccc21)NCC1CC1 [CBK282853] | 88.6% | 87.6
29 | CCOc1ccsc1C(=O)NCc1ccc(OC2CCNCC2)cc1 [CBK036355T] | 114% | 106
30 | COc1ccc(C(CC(=O)O)NC(=O)c2ccccc2)cc1 (centres unmarked) [CBK261121] | 93.9% | 89.3
31 | COCCn1c(C)cc(CN2CC3CCCN3C[C@@H]2C)c1C (some centres unmarked) [CBK285421] | 101% | 83.8
32 | CC1(C)CC(NC(=O)/C=C/C(=O)O)CC(C)(C)N1 [CBK262018] | 90.9% | 88.4
33 | COc1ccc2c(CN3CC4CCCN4C[C@H]3C)cn(C)c2c1 (some centres unmarked) [CBK285164] | 84% | 92.4
34 | FC(F)(F)c1ccnc(OCCCc2ccncc2)c1 [CBK115786] | 101% | 109
35 | COc1ccc(CC(=O)N2CCN(Cc3ccco3)C[C@H]2C)cc1 [CBK285483] | 104% | 96
36 | C[C@H](Cn1c(C(F)(F)F)cc2cccnc21)NC(=O)C1CC1 [CBK283227] | 89.4% | 93.7
37 | O=C(O)C1(c2ccccc2)CCN(S(=O)(=O)c2ccc(F)cc2)CC1 [CBK267571] | 87.8% | 92.9
38 | O=C(O)/C(SC1=NC2=Nc3ccccc3C2N=N1)=C1/C(=O)Nc2ccccc21 (centres unmarked) [CBK021943] | 96% | 100
39 | Cc1c(NC(=O)OC(C)C)sc(=S)n1C [CBK028089] | 83.7% | 88.9
40 | CC1=C/C(=C(\C#N)C(N)=O)NC(c2ccccc2O)=N1 [CBK019764] | 95.3% | 111
41 | C[C@@H](Cn1nnc2ccccc21)NC(=O)c1ccco1 [CBK284319] | 86.3% | 75.9
42 | S=c1[nH]nc(-c2sc3ccccc3c2Cl)[nH]1 [CBK013698] | 90.2% | 96.3

Row | SMILES | % viability (HeLa) | viability at 28.5 h, 10 µM (in vitro) [%]
43 | O=C(NC1CC1)[C@H]1C=CCN1S(=O)(=O)c1cccc(F)c1 [CBK285485] | 98.9% | 111
44 | COc1ccc2[nH]cc(CCNC(=O)Cc3c[nH]c4ccc(O)cc34)c2c1 [CBK116216] | 84.5% | 98.6
45 | COc1cccc(CN2C(=O)[C@H]3CCCN3C(=O)c3ccccc32)c1 [CBK282852] | 106% | 108
46 | CCCc1[nH]nc(O)c1CCc1ccc(Cl)cc1Cl [CBK075082] | 109% | 106
47 | O=C(Nc1ccccc1OC1CCNCC1)C1CCC1 [CBK045901T] | 97.8% | 109
48 | C[C@@H]1CN2CCCC2CN1Cc1cc(F)cc(F)c1 (some centres unmarked) [CBK285405] | 105% | 96.1
49 | COc1cccc(NC(=O)c2sc3ncn(C)c(=O)c3c2C)c1 [CBK071807] | 82.5% | 99.2
50 | O=C(NC1CCCCC1)[C@H]1C=CCN1C(=O)c1ccc(F)cc1F [CBK282311] | 97.2% | 95
51 | O=C(Nc1ccccc1OC1CCNCC1)C1CCCO1 (centres unmarked) [CBK045905T] | 110% | 91.1
52 | O=C1CSC(Nc2ccc(Br)cc2)=N1 [CBK026413] | 88.5% | 79.9
53 | CC[C@H](Cn1ncc2ccccc2c1=O)NC(=O)c1ccco1 [CBK284300] | 86.8% | 78.6
54 | O=C(NC[C@@H]1CCCN(C(=O)c2cscn2)C1)c1cccs1 [CBK284263] | 93.5% | 85.7
55 | C[C@H](Cn1c(=O)oc2ccccc21)NC(=O)c1cccs1 [CBK284532] | 90.7% | 85
56 | CC(=O)Nc1ccc(S(=O)(=O)Nc2c(C(=O)N3CCN(C)CC3)[nH]c3ccccc23)cc1 [CBK050044] | 93.9% | 94.9
57 | Cc1ccc(Cn2cc(Br)c(NC(=O)C(=O)O)n2)cc1 [CBK288529] | 88.4% | 96.9
58 | O=C(O)c1cccc2c1C(=O)N(Cc1ccccc1)C2 [CBK286872] | 89.1% | 91
59 | CCOC(=O)N1CCC(NS(=O)(=O)c2ccc(Oc3ccccc3)cc2)CC1 [CBK045469] | 97.7% | 98.4
60 | O=C(NCCc1ccccc1)[C@@H]1C=CCN1C(=O)c1ccco1 [CBK284316] | 90% | 93
61 | O=C1CSC(c2ccc(Br)cc2)N1O (centres unmarked) [CBK288521] | 97.7% | 89
